The text below walks through data of patent US5766848A (Synaptic Pharmaceutical Corporation, priority 1994, dated 1998).

For data set [1] the following is noted: literature reports; cited from earlier work.
The target of data set [2] is T1, human GAT-3 (Homo sapiens, UniProt P48066).
T1 construct: expressed in transfected cells
T1 sequence (P48066 1-632): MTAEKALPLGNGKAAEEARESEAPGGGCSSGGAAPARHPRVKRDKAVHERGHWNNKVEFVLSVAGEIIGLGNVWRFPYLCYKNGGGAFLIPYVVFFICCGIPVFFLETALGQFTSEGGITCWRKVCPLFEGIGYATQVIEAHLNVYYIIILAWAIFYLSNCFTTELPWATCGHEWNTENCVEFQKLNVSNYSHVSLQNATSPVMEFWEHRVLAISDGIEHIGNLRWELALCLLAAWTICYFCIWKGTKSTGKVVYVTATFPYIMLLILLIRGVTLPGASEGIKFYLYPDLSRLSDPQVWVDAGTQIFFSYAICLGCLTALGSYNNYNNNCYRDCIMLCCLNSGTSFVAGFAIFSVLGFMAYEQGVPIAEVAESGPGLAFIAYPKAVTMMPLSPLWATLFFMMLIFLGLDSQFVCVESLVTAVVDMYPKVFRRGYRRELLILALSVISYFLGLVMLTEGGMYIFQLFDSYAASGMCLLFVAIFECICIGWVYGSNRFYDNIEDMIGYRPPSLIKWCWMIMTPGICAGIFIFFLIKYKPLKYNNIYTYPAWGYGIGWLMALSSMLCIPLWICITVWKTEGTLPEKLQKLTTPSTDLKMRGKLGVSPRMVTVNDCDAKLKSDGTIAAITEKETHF
Description: Inhibition of [3H]GABA uptake, human GAT-3 stable LM(tk-) cell line. It counts as cell-based. As to conditions: read-out: IC50, human GAT-3, inhibition of [3H]GABA uptake, Table 9, means ± S.E.M.
Description: (§1) Cells were grown under standard conditions (37° C., 5% CO2) in DMEM (Dulbecco's modified Eagles's medium; GIBCO, Grand Island, N.Y.).
(§2) Cells grown in 24-well plates were washed 3× with HEPES-buffered saline (HBS, in mM: NaCl, 150; HEPES, 20; CaCl2, 1; glucose, 10; KCl, 5; MgCl2 1; pH 7.4) and allowed to equilibrate on a 37° C. slide warmer. After 10 minutes the medium was removed and unlabeled drugs in HBS were added (450 μl/well). […] Plates were incubated at 37° C. for 10 minutes, then washed rapidly 3× with ice-cold HBS, using a 24-position plate washer (Brandel, Gaithersburg, Mass.; model PW-12). Cells were solubilized with 0.05% sodium deoxycholate/0.1N NaOH (0.25 ml/well), an aliquot neutralized with 1N HCl, and radioactivity was determined by scintillation counting. Protein was quantified in an aliquot of the solubilized cells using a BIO-RAD protein assay kit, according to the manufacturer's directions.
(§3) Competition curves were conducted in duplicate, using 10 concentrations of unlabeled drug. […] All data throughout the paper represent means±S.E.M.

The target of data set [3] is human GAT-1 (Homo sapiens, UniProt P30531). As to conditions: read-out: IC50, human GAT-1, inhibition of [3H]GABA uptake.
Description: as §1, §2, §3
For data set [4] the following is noted: human volunteers (CI-966); clinical reports (Tiagabine); cited from earlier work.
The target in data set [5] is T2, human BGT-1 (Homo sapiens, UniProt P48065).
T2 sequence (P48065 1-614 C10Y): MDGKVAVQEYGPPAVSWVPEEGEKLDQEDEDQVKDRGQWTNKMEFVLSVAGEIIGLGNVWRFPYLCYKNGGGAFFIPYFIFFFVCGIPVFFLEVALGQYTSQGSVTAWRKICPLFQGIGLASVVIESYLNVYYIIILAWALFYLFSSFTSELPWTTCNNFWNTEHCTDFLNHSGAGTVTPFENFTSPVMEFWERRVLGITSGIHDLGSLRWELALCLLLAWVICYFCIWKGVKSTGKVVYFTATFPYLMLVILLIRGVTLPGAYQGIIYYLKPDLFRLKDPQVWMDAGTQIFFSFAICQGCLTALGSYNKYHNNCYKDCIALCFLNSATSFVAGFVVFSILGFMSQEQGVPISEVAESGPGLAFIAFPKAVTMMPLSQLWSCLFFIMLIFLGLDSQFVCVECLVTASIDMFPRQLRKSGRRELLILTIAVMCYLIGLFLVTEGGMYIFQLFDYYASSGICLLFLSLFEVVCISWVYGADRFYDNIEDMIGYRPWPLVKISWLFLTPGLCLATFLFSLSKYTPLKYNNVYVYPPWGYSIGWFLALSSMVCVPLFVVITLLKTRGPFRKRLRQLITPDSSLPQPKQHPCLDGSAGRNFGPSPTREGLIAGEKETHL
The settings on record: read-out: IC50, human BGT-1, inhibition of [3H]GABA uptake; Table 9; stable LM(tk-) cell line; means ± S.E.M.
Description: Cells were grown under standard conditions (37° C., 5% CO2) in Dulbecco's modified Eagles's medium (GIBCO, Grand Island, N.Y.).
After 10 minutes the medium was removed and unlabeled drugs in HBS were added (450 μl/well). […] Plates were incubated at 37° C. for 10 minutes, then washed rapidly 3× with ice-cold HBS, using a 24-position plate washer (Brandel, Gaithersburg, Mass.; model PW-12). Cells were solubilized with 0.05% sodium deoxycholate/0.1N NaOH (0.25 ml/well), an aliquot neutralized with 1N HCl, and radioactivity was determined by scintillation counting. Protein was quantified in an aliquot of the solubilized cells using a BIO-RAD protein assay kit, according to the manufacturer's directions.
Data Analysis: Competition curves were conducted in duplicate, using 10 concentrations of unlabeled drug. […] All data throughout the paper represent means±SEM.
as §1, §2, §3

The conditions of data set [6]: Phase II clinical trials; cited from earlier work.
The target of data set [7] is T3, rat GAT-2 (Rattus norvegicus, UniProt P31646).
T3 construct: expressed in transfected cells
T3 sequence (P31646 1-602): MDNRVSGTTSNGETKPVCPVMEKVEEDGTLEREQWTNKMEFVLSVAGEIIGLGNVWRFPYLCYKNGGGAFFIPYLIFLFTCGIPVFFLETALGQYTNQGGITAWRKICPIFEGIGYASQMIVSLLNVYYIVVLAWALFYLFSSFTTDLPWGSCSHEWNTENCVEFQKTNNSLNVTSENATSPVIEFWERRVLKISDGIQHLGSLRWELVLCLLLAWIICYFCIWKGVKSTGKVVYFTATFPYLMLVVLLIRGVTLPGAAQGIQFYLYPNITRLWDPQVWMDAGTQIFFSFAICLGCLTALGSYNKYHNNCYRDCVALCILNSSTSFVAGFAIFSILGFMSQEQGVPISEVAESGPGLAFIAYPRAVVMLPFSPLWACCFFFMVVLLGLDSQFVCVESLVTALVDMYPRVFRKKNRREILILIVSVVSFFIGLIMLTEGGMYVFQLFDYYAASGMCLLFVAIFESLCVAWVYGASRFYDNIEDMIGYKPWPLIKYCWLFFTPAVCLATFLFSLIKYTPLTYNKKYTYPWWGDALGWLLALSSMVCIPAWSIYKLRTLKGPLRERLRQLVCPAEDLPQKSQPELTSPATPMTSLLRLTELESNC
Put plainly: Inhibition of [3H]GABA uptake, rat GAT-2 stable LM(tk-) cell line. The settings on record: read-out: IC50, rat GAT-2, inhibition of [3H]GABA uptake, Table 9, means ± S.E.M. Format: cell-based.
Description: as §1, §2, §3

Sequence of human GAT-1 (P30531 whole entry): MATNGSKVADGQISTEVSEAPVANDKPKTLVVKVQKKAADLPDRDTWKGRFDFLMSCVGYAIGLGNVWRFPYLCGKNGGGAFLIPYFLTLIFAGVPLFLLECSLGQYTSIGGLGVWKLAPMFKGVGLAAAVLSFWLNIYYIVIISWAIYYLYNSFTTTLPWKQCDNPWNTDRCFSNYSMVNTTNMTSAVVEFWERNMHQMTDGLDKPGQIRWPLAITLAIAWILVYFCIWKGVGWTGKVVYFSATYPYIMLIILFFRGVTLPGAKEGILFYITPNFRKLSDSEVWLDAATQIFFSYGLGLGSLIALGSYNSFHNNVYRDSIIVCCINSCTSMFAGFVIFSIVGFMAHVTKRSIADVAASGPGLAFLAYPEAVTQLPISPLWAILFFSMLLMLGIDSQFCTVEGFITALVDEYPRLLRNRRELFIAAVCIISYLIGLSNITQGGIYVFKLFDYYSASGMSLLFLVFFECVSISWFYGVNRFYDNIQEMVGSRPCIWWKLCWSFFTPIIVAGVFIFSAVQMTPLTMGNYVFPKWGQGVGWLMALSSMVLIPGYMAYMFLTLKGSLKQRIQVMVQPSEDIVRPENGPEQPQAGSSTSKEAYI

For the molecule `O=C(O)C1=CCCN(CCOC(c2ccc(C(F)(F)F)cc2)c2ccc(C(F)(F)F)cc2)C1` [CI-966, [1-[2-[bis4(trifluoromethyl)phenyl]methoxy]ethyl]-1,2,5,6-tetrahydro-3-pyridinecarboxylic acid], the “anticonvulsive activity in animals” value in data set [1] is “display anticonvulsive activity”. In addition, the IC50 in data set [2] was 333 ± 76 µM; in data set [3], 0.26 ± 0.05 µM; in data set [5] it was 300 ± 10 µM. Moreover, the “severe adverse effects in humans” value in data set [4] is on record as “Severe adverse effects were noted”.
Turning to `Cc1ccsc1C(=CCCN1CCC[C@@H](C(=O)O)C1)c1sccc1C` [Tiagabine, (R)-1-[4,4-Bis(3-methyl-2-thienyl)-3-butenyl]-3-piperidencarboxylic acid], the “anticonvulsive activity in animals” value in data set [1] is recorded as “display anticonvulsive activity”. Moreover, the values for the IC50 in data set [2], in data set [7] and in data set [5] were 917 ± 193 µM, 1410 ± 250 µM and 1670 ± 722 µM, respectively. Besides, the “anti-seizure activity in patients” value in data set [6] is recorded as “demonstrated anti-seizure activity”.
